Reference: US4492698A, “Diphenylbutyl-1-acylpiperazines” (priority 1980, dated 1985)
Where a name gives a salt, the structure may show the parent alone. Read-outs that look alike come from different tables or passages of the source.

What was measured:
[1] = system: male hooded Long-Evans rats; test: spontaneous mouse-killing (muricide) by rats; type: in vivo, rat (hooded Long-Evans); conditions: for ED50: Rattus norvegicus, sc
Description: For the purpose of detecting new psychotropic substances with antiaggressive properties, pharmacologist have used several different models. One model used, the mouse-killing (muricide) by rats (Vogel, J. R. in Industrial Pharmacology, Vol. 2, Antidepressants, Stuart, F. and Lal, H., Ed., Futura Publishing Company, 1975, p. 99), is based on an existing interspecies aggression (Karli, P., Behaviour 10, 81 (1956)). This form of aggressive behaviour which is considered to be of predatory nature, is physiologically and topographically different from other forms of aggression (O'Boyle, M., Psychol. Bull. 81, 261 (1974)). Mousekilling is a spontaneous behaviour in some rat strains e.g. male hooded Long-Evans rats.
Male hooded Long-Evans rats placed in individual cages were used. By testing a number of rats, a colony of rats was obtained that killed a mouse whenever introduced into the rats' cage, by biting the mouse through the cervical spinal cord.
Each rat was tested for mouse-killing behaviour (killing a mouse within 5 minutes) prior to each experiment, thus serving as its own positive control. For each dose level 6 positive rats were selected and the test substance was administered by subcutaneous injection. Doses were selected to form a dose-response curve and the […] (ED50, mg/kg) was calculated by means of linear regression. The rats were tested at 1, and 2 hours after being injected subcutaneously. [drawing 9]

[2] = system: male NMRI mice; test: isolation-induced aggressive behaviour; type: in vivo; conditions: Mus musculus, sc, read-out: ED50 (dose inhibiting aggressive behaviour among 50 percent of the pairs)
Description: Male mice subjected to prolonged isolation develop aggressive behaviour against each other when paired (Yen, C. Y. et al., Arch. Int. Pharmacodyn. 123, 179, (1959); Valzelli, L., Adv. Pharmacol. 5, 79 (1967)). […] The clinical correlation of this test indicates tranquillizing and anxiolytic activities as well as antiaggressive properties as such (Duncan, R. L. et al., J. Med. Chem. 13, 1 (1970)).
This type of aggression is interesting because it is known that this kind of emotional behaviour might be located in limbic structures in the brain (MacLean, P. D., Psychosom. Med. 11, 338 (1949)).
Every week male NMRI mice, weighing 20-22 g, were isolated in Makrolon cages for three weeks with diet and water ad libitum. A piece of cardboard was placed between the cages to prevent visual contact.
To test aggressiveness the mice were paired in a neutral area, a beaker (14 cm high and diameter 14 cm). A pair is considered aggressive if both the animals show clear signs of fighting within 5 min. This fighting is characterized by biting and vocalization. As soon as fighting is seen, the mice are separated and brought to their home cage. […] Animals showing no aggression are discarded. […] The test substance is administered s.c. (0.2-0.4 ml/20 g). The mice are paired 0.5 h after the injection for trials of 5 min. duration.
The ED50 -value (mg/kg) reported is the dose inhibiting aggressive behaviour among 50 percent of the pairs 0.5 hour after drug administration.

[3] = system: mice (NMRI); test: writhing test (acetic acid), analgetic properties; type: in vivo; conditions: Mus musculus, sc, 20 min before acetic acid i.p.; female mice; read-out: ED50 (dose blocking the writhing behaviour in 50% of the animals)
Method: The writhing test is a frequently used test of analgetic properties (Witkin, L. B. et al., J. Pharmacol. Exp. Ther. 133, 400 (1961)). If acetic acid (0.5%, 15 ml/kg) is injected intraperitoneally in mice (NMRI) they will without exception develop a writhing behaviour characterized by stretching their hind legs. The drugs to be tested were administered subcutaneously to 6 female mice at each dose 20 min. before the injection of the acetic acid. After 10 min. The behaviour of the mice was studied in 5 min. The ED50 value is the dose blocking the writhing behaviour in 50% of the animals during the 5 min. study period.

[4] = system: male NMRI mice; conditions: general statement on the test; cited from earlier work
[5] = 1 hr after injection, read-out: ED50, spontaneous mouse-killing, 1 hr
[6] = read-out: ED50, spontaneous mouse-killing, s.c., 2 hr after injection
[7] = 0.5 hour after drug administration

Row | SMILES | ED50 [1, 5] [mg/kg] | ED50 [1, 6] [mg/kg] | ED50 [2, 7] [mg/kg] | ED50 [3] [mg/kg] | further results
1 | CC(=O)N1CCN(CCCC(c2ccc(F)cc2)c2ccc(F)cc2)CC1 [B, 1-acetyl-4-[4,4-(di-fluorophenyl)butyl]piperazine] | > 10 | > 10 | 10 | – | pharmacological properties compared with compounds I ([1]; versus compounds I of the invention, in the tests of the application): inferior to the compounds I of the present invention
2 | CN(C)CCCN1c2ccccc2Sc2ccc(Cl)cc21 [Chlorpromazine] | – | – | – | – | ED50 ([2]; 0.5 h): 1.4 mg/kg
3 | CN(C)CCC=C1c2ccccc2CCc2ccccc21 [Amitriptyline] | > 10 | 6.4 | 5 | – | –
4 | CCC(=O)N1CCN(CCCC(c2ccc(F)cc2)c2ccc(F)cc2)CC1 [Compound 1, 1-Ethylcarbonyl-4-[4,4-(di-p-fluorophenyl)butyl]-piperazine hydrochloride] | 1 | 1.8 | 2.8 | 0.5 | –
5 | O=C(C1CC1)N1CCN(CCCC(c2ccc(F)cc2)c2ccc(F)cc2)CC1 [Compound 3] | 2.6 | 3.7 | 1.4 | 0.8 | –
6 | CC(C)C(=O)N1CCN(CCCC(c2ccc(F)cc2)c2ccc(F)cc2)CC1 [Compound 2] | – | – | – | 1.1 | –
7 | CN1C(=O)CN=C(c2ccccc2)c2cc(Cl)ccc21 [Diazepam] | – | – | – | – | activity on isolation-induced aggressive behaviour [4]: active
8 | CCC(=O)N1CC(C)N(CCC(c2ccccc2)c2ccccc2)CC1C (stereo not shown) [Compound A1] | – | – | – | 4.2 | –
